Laboratory results as given in ChEMBL document CHEMBL1127525, “Synthesis and antitumor activities of novel 6-5 fused ring heterocycle antifolates: N-[4-[omega-(2-amino-4-substituted-6,7-dihydrocyclopenta [d]pyrimidin-5-yl)alkyl]benzoyl]-L-glutamic acids” (J Med Chem, 1994).

Experiments:
Mus musculus [1] = assay: Compound was evaluated for the life span assay against P388 Leukemia in mice (Controls died in an average of 9.8 days) at 12.5 (mg/kg) dose; assay type: functional
MC-38 = assay: Inhibitory concentration of compound was tested against Colon 38 tumor growth cell line; assay type: functional, cell-based; conditions: Mus musculus
P388 [2] = assay: Inhibitory concentration of compound was tested against P388 tumor growth cell line; assay type: functional, cell-based; conditions: Mus musculus
Colon 26 [3] = assay: Inhibitory concentration of compound was tested against Colon 26 Mouse Colorectal Carcinoma on 4 hour exposure; assay type: functional, cell-based; conditions: Colon 26, 4 h
Mus musculus [4] = assay: Compound was evaluated for the life span assay against P388 Leukemia in mice (Controls died in an average of 9.8 days) at 3.13 (mg/kg) dose; assay type: functional
Mus musculus [5] = assay: Compound was evaluated for the life span assay against P388 Leukemia in mice (Controls died in an average of 9.8 days) at 50 (mg/kg) dose; assay type: functional
Mus musculus [6] = assay: Compound was evaluated for the life span assay against P388 Leukemia in mice (Controls died in an average of 9.8 days) at 0.78 (mg/kg) dose; assay type: functional
P388 [7] = assay: Inhibitory concentration of compound was tested against P388:Methotrexate resistant cells tumor growth cell line; assay type: functional, cell-based; conditions: Mus musculus
Mus musculus [8] = assay: Compound was evaluated for the activity against Colon 26 Mouse colorectal carcinoma in mice by tumor weight assay at 2.5 (mg/kg) dose; assay type: functional
Mus musculus [9] = assay: Compound was evaluated for the activity against Colon 26 Mouse colorectal carcinoma in mice by tumor weight assay at 10 (mg/kg) dose; assay type: functional
Colon 26 [10] = assay: (§1) Inhibitory concentration of compound was tested against Colon 26 tumor growth cell line; assay type: functional, cell-based; conditions: Mus musculus
KB = assay: Inhibitory concentration of compound was tested against KB tumor growth cell line; assay type: functional, cell-based; conditions: Homo sapiens
Dihydrofolate reductase [11] = molecular target: T1, Dihydrofolate reductase (Mus musculus, UniProt P00375); assay: Compound was tested for the inhibition of dihydrofolate reductase in P388 cells; assay type: cell-based
T1 sequence (P00375 whole entry): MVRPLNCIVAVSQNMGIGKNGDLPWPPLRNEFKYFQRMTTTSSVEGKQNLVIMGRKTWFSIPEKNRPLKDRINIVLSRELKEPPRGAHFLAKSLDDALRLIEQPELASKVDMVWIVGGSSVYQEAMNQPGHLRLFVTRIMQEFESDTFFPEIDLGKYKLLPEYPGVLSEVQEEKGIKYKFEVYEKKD

Mus musculus [12] = assay: Compound was evaluated for the activity against Colon 26 Mouse colorectal carcinoma in mice by tumor weight assay at 5 (mg/kg) dose; assay type: functional
Thymidylate synthase = molecular target: T2, Thymidylate synthase (Lactobacillus casei, UniProt P00469); assay: Binding affinity against TS
T2 sequence (P00469 whole entry): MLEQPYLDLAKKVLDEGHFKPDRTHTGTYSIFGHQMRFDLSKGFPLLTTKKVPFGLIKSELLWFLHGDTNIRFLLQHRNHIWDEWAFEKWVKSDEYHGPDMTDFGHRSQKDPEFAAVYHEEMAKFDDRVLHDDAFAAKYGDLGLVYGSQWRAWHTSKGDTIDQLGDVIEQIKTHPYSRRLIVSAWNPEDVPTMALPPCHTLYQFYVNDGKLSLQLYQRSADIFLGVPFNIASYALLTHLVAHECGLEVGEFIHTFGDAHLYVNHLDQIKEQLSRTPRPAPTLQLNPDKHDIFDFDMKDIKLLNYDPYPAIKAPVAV

Dihydrofolate reductase [13] = molecular target: T1, Dihydrofolate reductase; assay: Binding affinity against dihydrofolate reductase
Mus musculus [14] = assay: Compound was evaluated for the life span assay against P388 Leukemia in mice (Controls died in an average of 9.8 days) at 0.39 (mg/kg) dose; assay type: functional
Mus musculus [15] = assay: Compound was evaluated for the activity against Colon 26 Mouse colorectal carcinoma in mice by tumor weight assay at 20 (mg/kg) dose; assay type: functional
Mus musculus [16] = assay: Compound was evaluated for the activity against LC-6 Non-Small cell lung carcinoma in mice by tumor weight assay at 20 (mg/kg) dose experiment-2; assay type: functional
Mus musculus [17] = assay: Compound was evaluated for the life span assay against P388 Leukemia in mice (Controls died in an average of 9.8 days) at 1.56 (mg/kg) dose; assay type: functional
Mus musculus [18] = assay: Compound was evaluated for the life span assay against P388 Leukemia in mice (Controls died in an average of 9.8 days) at 0.2 (mg/kg) dose; assay type: functional
Mus musculus [19] = assay: Compound was evaluated for the activity against LC-6 Non-Small cell lung carcinoma in mice by tumor weight assay at 20 (mg/kg) dose experiment-1; assay type: functional
Mus musculus [20] = assay: Compound was evaluated for the activity against LC-6 Non-Small cell lung carcinoma in mice by tumor weight assay at 40 (mg/kg) dose experiment-2; assay type: functional
Mus musculus [21] = assay: Compound was evaluated for the activity against LC-6 Non-Small cell lung carcinoma in mice by tumor weight assay at 10 (mg/kg) dose experiment-2; assay type: functional
Mus musculus [22] = assay: Compound was evaluated for the life span assay against P388 Leukemia in mice (Controls died in an average of 9.8 days) at […] (mg/kg) dose; assay type: functional
Mus musculus [23] = assay: Compound was evaluated for the activity against LC-6 Non-Small cell lung carcinoma in mice by tumor weight assay at 10 (mg/kg) dose in experiment-1; assay type: functional
Mus musculus [24] = assay: Compound was evaluated for the activity against LC-6 Non-Small cell lung carcinoma in mice by tumor weight assay at 40 (mg/kg) dose; assay type: functional
Mus musculus [25] = assay: Compound was evaluated for the activity against Colon 26 Mouse colorectal carcinoma in mice by tumor weight assay at 40 (mg/kg) dose
Mus musculus [26] = assay: Compound was evaluated for the activity against LC-6 Non-Small cell lung carcinoma in mice by tumor weight assay at 20 (mg/kg) dose; assay type: functional
Mus musculus [27] = assay: Compound was evaluated for the activity against LC-6 Non-Small cell lung carcinoma in mice by tumor weight assay at 10 (mg/kg) dose; assay type: functional
Mus musculus [28] = assay: Compound was evaluated for the life span assay and the activity against P388 Leukemia in mice (Controls died in an average of 9.8 days) at 3.13 (mg/kg) dose; assay type: functional
Mus musculus [29] = organism: Mus musculus; assay: as §1; assay type: functional
P388 [30] = assay: inhibitory concentration of compound was tested against P388:Methotrexate resistant cells tumor growth cell line; assay type: functional, cell-based; conditions: Mus musculus
P388 (Mus musculus) = assay: Inhibitory concentration of compound was tested against P388 tumor growth cell line
Mus musculus [31] = assay: Compound was evaluated for the activity against LC-6 Non-Small cell lung carcinoma in mice by tumor weight assay at 2.5 (mg/kg) dose experiment-1; assay type: functional
Mus musculus [32] = assay: Compound was evaluated for the activity against Colon 26 Mouse colorectal carcinoma in mice by tumor weight assay at 0.6 (mg/kg) dose; assay type: functional
Mus musculus [33] = assay: Compound was evaluated for the life span assay against P388 Leukemia in mice (Controls died in an average of 9.8 days) at 0.1 (mg/kg) dose; assay type: functional
Mus musculus [34] = assay: Compound was evaluated for the activity against LC-6 Non-Small cell lung carcinoma in mice by tumor weight assay at 2.5 (mg/kg) dose experiment-2; assay type: functional
Mus musculus [35] = assay: Compound was evaluated for the activity against LC-6 Non-Small cell lung carcinoma in mice by tumor weight assay at 1.3 (mg/kg) dose experiment-2; assay type: functional
Mus musculus [36] = assay: Compound was evaluated for the activity against Colon 26 Mouse colorectal carcinoma in mice by tumor weight assay at 1.25 (mg/kg) dose; assay type: functional
Mus musculus [37] = assay: Compound was evaluated for the activity against LC-6 Non-Small cell lung carcinoma in mice by tumor weight assay at 5 (mg/kg) dose experiment-2; assay type: functional
Mus musculus [38] = assay: Compound was evaluated for the activity against LC-6 Non-Small cell lung carcinoma in mice by tumor weight assay at 5 (mg/kg) dose experiment-1; assay type: functional
Mus musculus [39] = assay: Compound was evaluated for the life span assay against P388 Leukemia in mice (Controls died in an average of 9.8 days) at 0.05 (mg/kg) dose; assay type: functional
Mus musculus [40] = assay: Compound was evaluated for the activity against Colon 26 Mouse colorectal carcinoma in mice by tumor weight assay at 0.3 (mg/kg) dose; assay type: functional

SMILES: Nc1nc(N)c2c(n1)CCC2CCc1ccc(C(=O)NC(CCC(=O)O)C(=O)O)cc1 (stereo unspecified)
- T/C (Mus musculus [1]): 147%
- IC50 (MC-38): 10 nM
- IC50 (P388 [2]): 7.1 nM
- IC50 (Colon 26 [3]): 190 nM
- T/C (Mus musculus [4]): 135%
- T/C (Mus musculus [5]): 148%
- T/C (Mus musculus [6]): 129%
- IC50 (P388 [7]): 64 nM
- T/C (Mus musculus [8]): 95%
- T/C (Mus musculus [9]): 41%
- IC50 (Colon 26 [10]): 8 nM
- IC50 (KB): 4.1 nM
- IC50 (Dihydrofolate reductase [11]): 72 nM
- T/C (Mus musculus [12]): 62%

SMILES: Nc1nc2[nH]cc(CCc3ccc(C(=O)N[C@@H](CCC(=O)O)C(=O)O)cc3)c2c(=O)[nH]1 [PEMETREXED]
- Ki (Thymidylate synthase): 550 nM
- Ki (Dihydrofolate reductase [13]): 560 nM

SMILES: CCC(Cc1cnc2nc(N)nc(N)c2n1)c1ccc(C(=O)N[C@@H](CCC(=O)O)C(=O)O)cc1 (stereo partly specified) [EDATREXATE]
- T/C (Mus musculus [1]): 157%
- T/C (Mus musculus [14]): 135%
- IC50 (MC-38): 11 nM
- IC50 (P388 [2]): 4.3 nM
- IC50 (Colon 26 [3]): > 40000 nM
- T/C (Mus musculus [15]): 64%
- T/C (Mus musculus [16]): 1%
- T/C (Mus musculus [17]): 155%
- T/C (Mus musculus [18]): 114%
- T/C (Mus musculus [4]): 162%
- T/C (Mus musculus [19]): 38%
- T/C (Mus musculus [20]): 1%
- T/C (Mus musculus [6]): 136%
- IC50 (P388 [7]): 44 nM
- T/C (Mus musculus [21]): 22%
- T/C (Mus musculus [9]): 70%
- IC50 (Colon 26 [10]): 4.8 nM
- T/C (Mus musculus [22]): 165%
- IC50 (KB): 3 nM
- T/C (Mus musculus [23]): 63%

SMILES: CN(Cc1cnc2nc(N)nc(N)c2n1)c1ccc(C(=O)N[C@@H](CCC(=O)O)C(=O)O)cc1 [METHOTREXATE]
- IC50 (P388 [2]): 23 nM
- IC50 (Colon 26 [3]): > 40000 nM
- T/C (Mus musculus [15]): 65%
- T/C (Mus musculus [24]): 35%
- T/C (Mus musculus [25]): 31%
- T/C (Mus musculus [26]): 53%
- T/C (Mus musculus [6]): 122%
- IC50 (P388 [7]): 223 nM
- T/C (Mus musculus [9]): 71%
- T/C (Mus musculus [27]): 100%
- T/C (Mus musculus [22]): 168%
- IC50 (KB): 19 nM
- T/C (Mus musculus [28]): 149%
- IC50 (Mus musculus [29]): 31 nM

SMILES: Nc1nc2c(c(=O)[nH]1)C(CCc1ccc(C(=O)NC(CCC(=O)O)C(=O)O)cc1)CC2 (stereo unspecified)
- IC50 (MC-38): > 1000 nM
- IC50 (P388 [30]): > 1000 nM
- IC50 (P388 (Mus musculus)): > 1000 nM
- IC50 (Colon 26 [10]): > 1000 nM
- IC50 (KB): > 1000 nM
- IC50 (Dihydrofolate reductase [11]): 2.1 nM

SMILES: Nc1nc(O)c2c(n1)CCC2CCCc1ccc(C(=O)NC(CCC(=O)O)C(=O)O)cc1 (stereo unspecified)
- IC50 (P388 [7]): > 1000 nM
- IC50 (P388 (Mus musculus)): > 1000 nM
- IC50 (Colon 26 [10]): > 1000 nM
- IC50 (KB): > 1000 nM

SMILES: Nc1nc(N)c2c(n1)CCC2CCCc1ccc(C(=O)NC(CCC(=O)O)C(=O)O)cc1 (stereo unspecified)
- T/C (Mus musculus [31]): 6%
- T/C (Mus musculus [14]): 158%
- IC50 (MC-38): 5.1 nM
- IC50 (Colon 26 [3]): 1700 nM
- T/C (Mus musculus [32]): 49%
- T/C (Mus musculus [33]): 130%
- T/C (Mus musculus [34]): 9%
- T/C (Mus musculus [17]): 180%
- T/C (Mus musculus [35]): 4%
- T/C (Mus musculus [18]): 147%
- T/C (Mus musculus [36]): 38%
- T/C (Mus musculus [4]): 138%
- T/C (Mus musculus [6]): 170%
- IC50 (P388 [7]): 19 nM
- T/C (Mus musculus [8]): 31%
- T/C (Mus musculus [37]): 1%
- T/C (Mus musculus [38]): 23%
- IC50 (Colon 26 [10]): 3 nM
- T/C (Mus musculus [39]): 120%
- IC50 (KB): 1.7 nM
- T/C (Mus musculus [40]): 71%
